The source of these data is ChEMBL document CHEMBL3734682, “PPL catalyzed four-component PASE synthesis of 5-monosubstituted barbiturates: Structure and pharmacological properties” (2015).

≈ marks a conversion by molar mass, not a printed value. Calls of active or inactive are those of the source. The calls are words filed in the database; no cut-off is given here.

In assay [1] the test system is DLA. The assay can be described thus: Induction of apoptosis in Swiss albino mouse DLA cells assessed as nuclear fragmentation at 25,50 and 100 ug/ml after 12 hrs by AO/EtBr staining based fluorescence microscopic analysis. In kind it is functional, cell-based.
For assay [2], the system named is DLA. As to the kind of experiment: Induction of apoptosis in Swiss albino mouse DLA cells assessed as membrane blebbing at 25,50 and 100 ug/ml after 12 hrs by AO/EtBr staining based fluorescence microscopic analysis. It is filed as functional, cell-based.
In another assay the test system is Bacillus subtilis. As to the kind of experiment: Antibacterial activity against clinical isolate Gram-positive Bacillus subtilis after 24 hrs by agar diffusion assay. In kind it is functional. Background: A growth-free zone around the sample is the usual read-out of agar diffusion tests.
A short description of assay [3]: Induction of apoptosis in Swiss albino mouse DLA cells at 100 ug/ml after 12 hrs by AO/EtBr staining based fluorescence microscopic analysis. It is filed as functional.
For assay [4], the system named is DLA. The assay can be described thus: Induction of apoptosis in Swiss albino mouse DLA cells assessed as chromatin condensation at 25,50 and 100 ug/ml after 12 hrs by AO/EtBr staining based fluorescence microscopic analysis. It is filed as functional, cell-based.
Assay [5] deals with DLA. As to the kind of experiment: Induction of apoptosis in Swiss albino mouse DLA cells assessed as nuclear fragmentation at 50 and 100 ug/ml after 12 hrs by AO/EtBr staining based fluorescence microscopic analysis. In kind it is functional, cell-based.
Assay [6] concerns DLA. The assay can be described thus: Induction of apoptosis in Swiss albino mouse DLA cells assessed as nucleolus pyknosis at 50 and 100 ug/ml after 12 hrs by AO/EtBr staining based fluorescence microscopic analysis. It is filed as functional, cell-based.
Assay [7] relates to DLA. The assay can be described thus: Induction of apoptosis in Swiss albino mouse DLA cells assessed as cell shrinkage at 25,50 and 100 ug/ml after 12 hrs by AO/EtBr staining based fluorescence microscopic analysis. It is filed as functional.
In the next assay the test system is Proteus vulgaris. As to the kind of experiment: Antibacterial activity against clinical isolates Proteus vulgaris after 24 hrs by agar diffusion assay. In kind it is functional.
The subject of assay [8] is DLA. As to the kind of experiment: Induction of apoptosis in Swiss albino mouse DLA cells assessed as cytoplasmic vacuoles at 50 and 100 ug/ml after 12 hrs by AO/EtBr staining based fluorescence microscopic analysis. In kind it is functional, cell-based.
For another assay, the system named is Escherichia coli. The assay can be described thus: Antibacterial activity against clinical isolates Escherichia coli after 24 hrs by agar diffusion assay. In kind it is functional.
The test system of the next assay is Pseudomonas syringae. The assay can be described thus: Antibacterial activity against clinical isolate Gram-negative Pseudomonas syringae after 24 hrs by agar diffusion assay. It is filed as functional.
The test system of the next assay is Staphylococcus aureus. As to the kind of experiment: Antibacterial activity against clinical isolates Staphylococcus aureus after 24 hrs by agar diffusion assay. It is filed as functional.

As for `Cc1[nH][nH]c(=O)c1[C@@H](c1ccc([N+](=O)[O-])cc1)c1c(O)[nH]c(=O)[nH]c1=O`, the result in the assay on DLA [1], in the assay with DLA [2], with DLA [4], with DLA [5], in the assay on DLA [6] and with DLA [7] was Active. Further, the outcome with DLA [8] was Active. The MIC in the assay with Bacillus subtilis and with Proteus vulgaris was 100 µg/mL (≈ 278 µM) throughout. This molecule also had an Activity in assay [3] of 12%.
For `COc1ccc([C@H](c2c(C)[nH][nH]c2=O)c2c(O)[nH]c(=O)[nH]c2=O)cc1`, the result in the assay on DLA [1], in the assay on DLA [2], in the assay on DLA [4], with DLA [5], in the assay on DLA [6] and with DLA [7] was Active. Further, the result in the assay with DLA [8] was Active. Besides, the MIC in the assay with Bacillus subtilis and against Proteus vulgaris was 100 µg/mL (≈ 290 µM) throughout. This molecule also yielded an Activity in [3] of 15%.
In the case of `Cc1[nH][nH]c(=O)c1[C@@H](c1ccccc1[N+](=O)[O-])c1c(O)[nH]c(=O)[nH]c1=O`, the outcome in the assay with DLA [1], in the assay with DLA [2], in the assay with DLA [4] and in the assay on DLA [7] was Active. Moreover, the MIC in the assay on Escherichia coli, against Bacillus subtilis, with Pseudomonas syringae and against Proteus vulgaris was 100 µg/mL (≈ 278 µM) throughout.
For `Cc1[nH][nH]c(=O)c1[C@@H](c1ccc(Cl)cc1)c1c(O)[nH]c(=S)[nH]c1=O`, the result in the assay on DLA [1], in the assay on DLA [2], in the assay with DLA [4] and in the assay on DLA [7] was Active. The MIC against Bacillus subtilis and against Proteus vulgaris was 100 µg/mL (≈ 274 µM) in each case.
Regarding `CCC[C@H](c1c(C)[nH][nH]c1=O)c1c(O)[nH]c(=O)[nH]c1=O`, the outcome with DLA [1], in the assay with DLA [2], with DLA [4], in the assay on DLA [5], in the assay on DLA [6] and in the assay with DLA [7] was Active. In addition, the outcome with DLA [8] was Active. Further, the MIC with Bacillus subtilis came out at 100 µg/mL (≈ 357 µM). In addition, the Activity in [3] is on record as 12%.
On to `CCOC(=O)[C@H](c1c(C)[nH][nH]c1=O)c1c(O)[nH]c(=O)[nH]c1=O`, for which the result in the assay on DLA [1], in the assay with DLA [2], with DLA [4], in the assay on DLA [5], in the assay on DLA [6] and in the assay on DLA [7] was Active. In the assay with DLA [8], the result was Active. The MIC with Escherichia coli, in the assay with Bacillus subtilis, in the assay with Pseudomonas syringae, against Proteus vulgaris and against Staphylococcus aureus was 100 µg/mL (≈ 322 µM) each time. For the same molecule, the Activity in [3] was 23%.
With `NC[C@H]1O[C@H](O[C@H]2[C@H](O)[C@@H](O[C@H]3O[C@H](CO)[C@@H](O)[C@H](N)[C@H]3O)[C@H](N)C[C@@H]2N)[C@H](O)[C@@H](O)[C@@H]1O` [KANAMYCIN], the MIC against Escherichia coli was determined as 5 µg/mL (≈ 10.3 µM); in the assay with Bacillus subtilis, 5 µg/mL (≈ 10.3 µM); in the assay on Pseudomonas syringae it was 10 µg/mL (≈ 20.6 µM); in the assay on Proteus vulgaris, 5 µg/mL (≈ 10.3 µM); against Staphylococcus aureus, 80 µg/mL (≈ 165 µM).
For `Cc1[nH][nH]c(=O)c1[C@@H](c1cccc([N+](=O)[O-])c1)c1c(O)[nH]c(=S)[nH]c1=O`, the result in the assay on DLA [1], with DLA [2], with DLA [4] and with DLA [7] was Active.
For the molecule `COc1ccccc1[C@H](c1c(C)[nH][nH]c1=O)c1c(O)[nH]c(=O)[nH]c1=O`, the outcome in the assay on DLA [1], in the assay with DLA [2], in the assay with DLA [4] and in the assay with DLA [7] was Active. Moreover, the MIC in the assay on Escherichia coli, against Bacillus subtilis, in the assay on Pseudomonas syringae, against Proteus vulgaris and in the assay with Staphylococcus aureus was 100 µg/mL (≈ 290 µM) throughout.
In the case of `Cc1[nH][nH]c(=O)c1[C@@H](c1ccccc1Cl)c1c(O)[nH]c(=O)[nH]c1=O`, the outcome in the assay with DLA [1], with DLA [2], in the assay on DLA [4] and in the assay with DLA [7] was Active. The MIC in the assay on Escherichia coli, against Bacillus subtilis, in the assay with Pseudomonas syringae, with Proteus vulgaris and against Staphylococcus aureus was 100 µg/mL (≈ 287 µM) each time.
Regarding `Cc1[nH][nH]c(=O)c1[C@@H](c1cccnc1)c1c(O)[nH]c(=O)[nH]c1=O`, the outcome in the assay with DLA [1], with DLA [2], with DLA [4] and with DLA [7] was Active. For the same molecule, in the assay with Bacillus subtilis, the MIC was 100 µg/mL (≈ 317 µM).
`Cc1[nH][nH]c(=O)c1[C@@H](c1cccc([N+](=O)[O-])c1)c1c(O)[nH]c(=O)[nH]c1=O`: the outcome in the assay with DLA [1], in the assay with DLA [2], in the assay on DLA [4], with DLA [5], in the assay with DLA [6] and in the assay with DLA [7] was Active. The result in the assay on DLA [8] was Active. In addition, the MIC in the assay with Bacillus subtilis and against Proteus vulgaris was 100 µg/mL (≈ 278 µM) each time. The same molecule returned an Activity in assay [3] of 15%.
For the molecule `Cc1[nH][nH]c(=O)c1[C@@H](c1cccc(O)c1)c1c(O)[nH]c(=O)[nH]c1=O`, the outcome with DLA [1], in the assay with DLA [2], in the assay on DLA [4] and in the assay with DLA [7] was Active. For the same molecule, the figures for the MIC against Bacillus subtilis, against Proteus vulgaris and against Staphylococcus aureus were 25 µg/mL (≈ 75.7 µM), 100 µg/mL (≈ 303 µM) and 100 µg/mL (≈ 303 µM), respectively.
In the case of `Cc1[nH][nH]c(=O)c1[C@@H](c1ccc(Cl)cc1)c1c(O)[nH]c(=O)[nH]c1=O`, the outcome with DLA [1], with DLA [2], with DLA [4], with DLA [5], in the assay with DLA [6] and in the assay on DLA [7] was Active. In addition, the result in the assay with DLA [8] was Active. Besides, the MIC in the assay with Bacillus subtilis was 25 µg/mL (≈ 71.7 µM); in the assay with Proteus vulgaris, 100 µg/mL (≈ 287 µM). The molecule further had an Activity in [3] of 18%.
Turning to `Cc1[nH][nH]c(=O)c1[C@@H](c1ccccc1)c1c(O)[nH]c(=S)[nH]c1=O`, the result in the assay on DLA [1], in the assay with DLA [2], in the assay on DLA [4] and in the assay with DLA [7] was Active.
As for `Cc1[nH][nH]c(=O)c1[C@@H](c1cccc(Br)c1)c1c(O)[nH]c(=O)[nH]c1=O`, the outcome with DLA [1], in the assay with DLA [2], with DLA [4], in the assay with DLA [5], in the assay on DLA [6] and with DLA [7] was Active. The outcome with DLA [8] was Active. Further, the results for the MIC against Bacillus subtilis, in the assay with Pseudomonas syringae and with Proteus vulgaris were 25 µg/mL (≈ 63.6 µM), 100 µg/mL (≈ 254 µM) and 100 µg/mL (≈ 254 µM), respectively. In assay [3], the Activity amounted to 13%.
`Cc1[nH][nH]c(=O)c1[C@@H](c1ccc(F)cc1)c1c(O)[nH]c(=S)[nH]c1=O`: the result in the assay with DLA [1], in the assay with DLA [2], in the assay with DLA [4] and with DLA [7] was Active.
With `Cc1[nH][nH]c(=O)c1[C@@H](c1ccccc1)c1c(O)[nH]c(=O)[nH]c1=O`, the result in the assay with DLA [1], in the assay on DLA [2], in the assay with DLA [4] and with DLA [7] was Active. The MIC in the assay with Bacillus subtilis and in the assay with Proteus vulgaris was 100 µg/mL (≈ 318 µM) each time.
With `CCCC[C@H](c1c(C)[nH][nH]c1=O)c1c(O)[nH]c(=O)[nH]c1=O`, the outcome in the assay on DLA [1], in the assay on DLA [2], with DLA [4] and in the assay with DLA [7] was Active.
Take `CC1(C)S[C@@H]2[C@H](NC(=O)[C@H](N)c3ccccc3)C(=O)N2[C@H]1C(=O)O` [AMPICILLIN]: the MIC with Escherichia coli, with Bacillus subtilis, in the assay on Pseudomonas syringae, in the assay with Proteus vulgaris and in the assay on Staphylococcus aureus was 5 µg/mL (≈ 14.3 µM) throughout.
Take `CCC[C@H](c1c(C)[nH][nH]c1=O)c1c(O)[nH]c(=S)[nH]c1=O`: the result in the assay with DLA [1], in the assay on DLA [2], with DLA [4] and in the assay with DLA [7] was Active. The MIC with Bacillus subtilis turned out to be 100 µg/mL (≈ 337 µM).
On to `Cc1[nH][nH]c(=O)c1[C@@H](c1ccc(F)cc1)c1c(O)[nH]c(=O)[nH]c1=O`, for which the result in the assay on DLA [1], in the assay on DLA [2], in the assay with DLA [4] and in the assay with DLA [7] was Active. Further, the MIC came to 100 µg/mL (≈ 301 µM) against Bacillus subtilis, 25 µg/mL (≈ 75.2 µM) against Pseudomonas syringae and 100 µg/mL (≈ 301 µM) in the assay on Proteus vulgaris.

As a reminder, the MIC is the lowest concentration that inhibits growth of the organism. Lower therefore signals inhibition by little substance.
